What is called IC50 is the midpoint of a concentration-inhibition curve. Low readings indicate higher potency, high ones lower potency.

The assay addresses T1, human steroid sulfatase (Homo sapiens, UniProt P08842).
T1 construct: Human placenta is obtained freshly after delivery; from tissue; host or cells: human placenta (microsomes, Triton X-100 extract, column-purified)
T1 sequence (P08842 22-583): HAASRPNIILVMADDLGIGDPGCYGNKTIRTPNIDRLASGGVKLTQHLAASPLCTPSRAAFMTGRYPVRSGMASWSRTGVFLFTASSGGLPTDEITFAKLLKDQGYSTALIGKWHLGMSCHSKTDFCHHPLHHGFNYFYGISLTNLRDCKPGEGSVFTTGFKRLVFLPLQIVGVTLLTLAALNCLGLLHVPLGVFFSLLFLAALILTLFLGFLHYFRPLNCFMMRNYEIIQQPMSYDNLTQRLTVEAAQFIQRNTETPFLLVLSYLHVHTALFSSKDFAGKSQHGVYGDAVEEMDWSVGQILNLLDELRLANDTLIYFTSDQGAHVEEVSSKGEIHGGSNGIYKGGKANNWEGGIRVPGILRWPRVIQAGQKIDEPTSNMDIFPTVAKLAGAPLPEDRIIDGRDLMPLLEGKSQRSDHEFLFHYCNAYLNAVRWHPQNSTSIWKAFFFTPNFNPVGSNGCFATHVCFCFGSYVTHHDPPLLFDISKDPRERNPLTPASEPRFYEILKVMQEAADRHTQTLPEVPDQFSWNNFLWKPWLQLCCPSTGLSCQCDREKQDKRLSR
Nature of the assay: Assay of Human Steroid Sulfatase (purified from placenta, 4-methylumbelliferyl sulfate cleavage, fluorescence). The class given is biochemical. The conditions noted are these: reference compound, determined in parallel to test compounds; substrate 4-methylumbelliferyl sulfate, 37° C., 1 hour. The method, then: For storage, the material is frozen at −70° C.
The activity is recovered in the flow-through.
Plates are incubated at 37° C. for 1 hour.
Relative IC50 values are defined as follows: […]

Regarding `CC12CCC3c4ccc(OS(N)(=O)=O)cc4CCC3C1CCC2=O` (stereo not shown) [estrone sulfamate, Estrone sulfamate], the IC50 is around 60 nM.
